What all share (type): physicochemical
Data set [1] can be described thus: Cyclic voltammogram, negative region, 1 mM solution in 0.1M TBAPF6 in acetonitrile. Here is the method: FIG. 2. Voltammogram of the […]/negative region of a 1 mM solution of Fe(TREN-Pic) in 0.1 M tetrabutylammonium hexafluorophosphate (TBAPF6) in acetonitrile (MeCN), obtained using a glassy carbon working electrode, a platinum wire counter electrode, and a 0.010 M AgBF4 reference electrode.
(§1) In the negative portion of a cyclic voltammogram four features at −0.93, −2.10, −2.28, and −2.55V are observed with current ratios (i[cathodic]/i[anodic]) of 1.01, 0.67, 1.17, and 1.01 respectively. These were obtained with a 1 mM solution of Fe(TREN-Pic) in 0.1M tetrabutylammonium hexafluorophosphate in acetonitrile using a glassy carbon working electrode, platinum wire counter, and a 0.01M silver tetrafluoroborate reference electrode. When the −0.93V wave is subjected to bulk electrolytic cycling over 25 repetitions, a high Coulombic efficiency is calculated (˜95%) with an unoptimized slow decay in utilization (electrons stored per redox carrier molecule) of 4% over the first ten cycles. […] This represents only the third known complex to display this behavior (JACS, 2016, 15378 and Journal of Power Sources, 2016, 681).

A short description of data set [2]: Bulk electrolytic cycling (galvanostatic 1 electron charging and discharging) of the −0.93V wave. Particulars: over the first ten cycles, unoptimized. The method, then: FIG. 3. Galvanostatic 1 electron charging and discharging of a 1 mM solution of Fe(TREN-Pic) in 0.1 M TBAPF6 in MeCN, charging and discharging rates were both 1 mA and potential cutoffs were −1.3 V vs Ag^+ during charging and −0.4 V vs Ag^+ during discharging.
FIG. 5. Metrics obtained from bulk electrolysis displaying high coulombic efficiencies for the charge/discharge cycling.
as §1

Data set [3] is described as follows: Bulk cycling with broadened voltage window (galvanostatic 2 electron charging and discharging). Particulars: voltage window broadened to include the next wave; over 25 cycles. Here is the method: FIG. 6. Galvanostatic 2 electron charging and discharging of a 1 mM solution of Fe(TREN-Pic) in 0.1 M TBAPF6 in MeCN, charging and discharging rates were both 1 mA and potential cutoffs were −2.14 V vs Ag^+ during charging and −0.4 V vs Ag^+ during discharging.
FIG. 8. Metrics obtained from bulk electrolysis displaying high coulombic efficiencies for the charge/discharge cycling and the complexes capability to reversibly store multiple electron equivalents.
as §1

Consider “Fe III tris(2-aminoethyl)amine (TREN) picolinic (PIC) [Fe(TREN-Pic)]”, for which the “potential of first feature in negative portion of cyclic voltammogram” value in data set [1] (1 mM in 0.1M tetrabutylammonium hexafluorophosphate in acetonitrile, glassy carbon working electrode, platinum wire counter, 0.01M silver tetrafluoroborate reference, first feature) is on record as −0.93 V. Moreover, the “current ratio (i[cathodic]/i[anodic])” value in data set [1] (feature at −0.93 V) is 1.01; in data set [1] (feature at −2.10 V), 0.67; in data set [1] (feature at −2.28 V) it was 1.17; in data set [1] (feature at −2.55 V), 1.01. Further, the “potential of fourth feature in negative portion of cyclic voltammogram” value in data set [1] (same conditions, fourth feature) is on record as −2.55 V. For the same substance, in data set [1] (same conditions, second feature), the “potential of second feature in negative portion of cyclic voltammogram” value is recorded as −2.10 V. Further, in data set [1] (same conditions, third feature), the “potential of third feature in negative portion of cyclic voltammogram” value is listed as −2.28 V. In addition, in data set [2], the “decay in utilization (electrons stored per redox carrier molecule)” value is 4%. In addition, the decay over cycling result in data set [3] is reported as “significant decay”.

The record behind these values is patent US11569513B1, “Redox flow battery carrier molecule” (Triad National Security, LLC, priority 2020, dated 2023).
